Assay results as given in article PMC12340956, “Tranylcypromine-Based LSD1 Inhibitors as Useful Agents to Reduce Viability of” (ACS Infectious Diseases, 2025).
Like-named read-outs stand apart in the source and are kept apart here.

Experiments:
[1] = target: T1, human LSD1-CoREST complex (Homo sapiens, UniProt O60341); parameters: method as in footnote c (number not given); details: positive control; ref footnote c (number not given); read-out: IC50 (hLSD1 direct inhibition); cited from earlier work
T1 construct: made in house

[2] = MTT cytotoxicity in MRC-5 cells; type: cell-based; details: human, MRC-5 lung diploid fibroblast cells
[3] = MTT cytotoxicity in RPE cells; type: cell-based; details: human, retinal pigment epithelial (RPE) cells
[4] = system: S. mansoni juvenile forms; assay: Speed-of-action assay in juvenile forms; type: cell-based, Schistosoma mansoni; details: for IC50: Schistosoma mansoni, read-out: IC50 (speed of action, juvenile forms); for Percentage of effect: juvenile forms
Excerpt: (§1) To better characterize a selection of our LSD1i in vitro, we assessed the onset of their action, defined as the time required for an observable antischistosomal effect. […] For detailed percentages of activity at each time point, refer to the Supporting Information (Tables S2 and S3 in Supporting Information).

[5] = system: newly transformed schistosomula (NTS); assay: NTS viability phenotypic screening, 72 h
Method: (§2) For NTS and adult worms, transparent flat-bottom 96- and 24-well plates were used, respectively (Sarstedt, Switzerland). For juvenile worms, 48-well plates were used with 3–6 worms per plate and RPMI medium with 5% FCS and 1% penicillin/streptomycin. Compounds were initially tested at 20 and 10 μM in triplicate on NTS and repeated once; each well contained 30–40 NTS. Phenotypic reference points such as motility, morphology, and granularity were used to score incubated parasites’ overall viability (scores from 0 to 3). […] Identified hits from the NTS screening were tested on adult worms. […] The experiment was conducted in duplicate and repeated; standard deviations were calculated from two wells. […] For all in vitro assays, negative controls (DMSO at the highest tested concentration) were included.

NTS = assay: Speed-of-action assay in NTS; type: cell-based, Schistosoma mansoni; details: for Percentage of effect: NTS; for IC50: Schistosoma mansoni, read-out: IC50 (speed of action, NTS)
Excerpt: as §1

juvenile and adult worms = system: juvenile and adult worms; parameters: method as in earlier work of the authors (number not given); details: ref earlier work of the authors (number not given); cited from earlier work
adult worms = assay: Adult worm viability phenotypic assay, 72 h; details: Schistosoma mansoni, read-out: IC50 (adult worm viability)
Method: The life cycle is maintained at the Swiss TPH as described previously. Cercariae were obtained from infected snails by exposing them to a strong light source for 3–4 h in pond water.
as §2

[6] = 5 μM, read-out: percentage of viability, 72 h
[7] = 10 μM, read-out: percentage of viability, 72 h
[8] = 25 μM, read-out: percentage of viability, 72 h
[9] = 50 μM, read-out: percentage of viability, 72 h
[10] = read-out: IC50 (cell viability)

C#Cc1ccc(C(=O)Nc2ccc(C3CC3N)cc2)cc1 (stereo not drawn) [MC3935, reference compound]
IC50 [1]: 0.52 µM
viability at 72 h, 5 µM [2, 6]: 94 ± 10%
viability at 72 h, 10 µM [2, 7]: 97 ± 9%
viability at 72 h, 25 µM [2, 8]: 93 ± 17%
viability at 72 h, 50 µM [2, 9]: 94 ± 10%
IC50 at 72 h [2, 10]: > 100 µM
viability at 72 h, 5 µM [3, 6]: 84 ± 18%
viability at 72 h, 10 µM [3, 7]: 87 ± 24%
viability at 72 h, 25 µM [3, 8]: 82 ± 11%
viability at 72 h, 50 µM [3, 9]: 100 ± 33%
IC50 at 72 h [3, 10]: > 100 µM
IC50 ([4]; 4 h): > 20 µM
IC50 ([4]; 24 h): > 20 µM
IC50 ([4]; 48 h): > 20 µM
IC50 ([4]; 72 h): 17.7 µM
Percentage of effect ([4]; 4 h, 1 μM): 16.67%
Percentage of effect ([4]; 4 h, 10 μM): 23.33%
Percentage of effect ([4]; 4 h, 20 μM): 41.82%
Percentage of effect ([4]; 24 h, 1 μM): 17.24%
Percentage of effect ([4]; 24 h, 10 μM): 31.03%
Percentage of effect ([4]; 24 h, 20 μM): 38.46%
Percentage of effect ([4]; 48 h, 1 μM): 26.92%
Percentage of effect ([4]; 48 h, 10 μM): 32.69%
Percentage of effect ([4]; 48 h, 20 μM): 39.58%
Percentage of effect ([4]; 72 h, 1 μM): 31.48%
Percentage of effect ([4]; 72 h, 10 μM): 39%
Percentage of effect ([4]; 72 h, 20 μM): 56.25%
Percentage of reduction of NTS viability, 72 h ([5]; 1 μM): 33.3 ± 0.0%
Percentage of reduction of NTS viability, 72 h ([5]; 10 μM): 45.5 ± 4.3%
Percentage of reduction of NTS viability, 72 h ([5]; 20 μM): 100 ± 0.0%
IC50 ([5]; Schistosoma mansoni, read-out: IC50 (NTS viability)): 1.95 µM
Percentage of effect (NTS; 4 h, 10 μM): 21.15%
Percentage of effect (NTS; 4 h, 20 μM): 23.08%
Percentage of effect (NTS; 24 h, 10 μM): 41.07%
Percentage of effect (NTS; 24 h, 20 μM): 41.07%
Percentage of effect (NTS; 48 h, 10 μM): 34.69%
Percentage of effect (NTS; 48 h, 20 μM): 57.14%
Percentage of effect (NTS; 72 h, 10 μM): 51.02%
Percentage of effect (NTS; 72 h, 20 μM): 59.18%
IC50 (NTS; 4 h): > 20 µM
IC50 (NTS; 24 h): > 20 µM
IC50 (NTS; 48 h): 17.6 µM
IC50 (NTS; 72 h): 11.5 µM
time to parasite death (juvenile and adult worms): ≤ 96 h
IC50 (adult worms): > 10 µM
